*1 amine or outer side, *2 acyl side, *3 side chain or, on linkers, in order; H or OH if unused. Where a SMILES comes first, the peptide text is derived from it. Bridges are numbered along the chain shown (N, C = ends). Roman numbers before positions name the chains, in order. [ ]: non-standard residue; d: D form. Actinocin(1to9) = Cc1c2oc3c(C)ccc(C(=O)[*:2])c3nc-2c(C(=O)[*:1])c(N)c1=O; NMeV = CN[C@H](C(=O)O)C(C)C; Sar = CNCC(=O)O
Columns and labels:
[1] = target: Prostaglandin G/H synthase 1 (Homo sapiens, UniProt P23219); test: biochemical; type: tissue-based, Platelet; details: platelet;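 note: inhibition of COX-1 enzyme activity, with arachidonic acid supplied as substrate; in other assays of this panel Not Active means under 50% inhibition at 10 µM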
Prostaglandin G/H synthase 1, sequence (P23219 whole entry): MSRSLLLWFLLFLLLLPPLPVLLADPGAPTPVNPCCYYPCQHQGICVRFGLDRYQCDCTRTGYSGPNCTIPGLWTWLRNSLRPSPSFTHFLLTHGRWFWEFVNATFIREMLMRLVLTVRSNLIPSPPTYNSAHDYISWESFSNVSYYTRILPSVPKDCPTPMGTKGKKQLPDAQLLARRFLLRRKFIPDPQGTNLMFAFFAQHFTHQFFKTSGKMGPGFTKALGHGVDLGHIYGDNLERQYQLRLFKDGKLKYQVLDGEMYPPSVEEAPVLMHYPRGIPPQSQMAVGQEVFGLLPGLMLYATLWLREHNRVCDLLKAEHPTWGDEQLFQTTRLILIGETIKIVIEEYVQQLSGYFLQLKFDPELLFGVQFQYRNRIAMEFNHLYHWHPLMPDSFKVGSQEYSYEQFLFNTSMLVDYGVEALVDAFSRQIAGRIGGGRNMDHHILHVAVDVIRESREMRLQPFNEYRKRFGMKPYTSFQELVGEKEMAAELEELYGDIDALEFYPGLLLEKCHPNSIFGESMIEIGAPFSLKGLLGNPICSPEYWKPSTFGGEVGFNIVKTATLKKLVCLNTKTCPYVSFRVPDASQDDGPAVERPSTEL

[2] = DRUGMATRIX: Glutamate, AMPA radioligand binding (ligand: [3H] AMPA); type: cell membranes, Rattus norvegicus, Wistar, Cerebral cortex, Membrane; details: Not Active = under 50% inhibition at 10 µM
Histamine H2 receptor = Histamine H2 receptor (Homo sapiens, UniProt P25021); type: cell membranes, CHO-K1, Membrane; details: cho-k1; note: in other assays of this panel Not Active means under 50% inhibition at 10 µM
Histamine H2 receptor, sequence (P25021 whole entry): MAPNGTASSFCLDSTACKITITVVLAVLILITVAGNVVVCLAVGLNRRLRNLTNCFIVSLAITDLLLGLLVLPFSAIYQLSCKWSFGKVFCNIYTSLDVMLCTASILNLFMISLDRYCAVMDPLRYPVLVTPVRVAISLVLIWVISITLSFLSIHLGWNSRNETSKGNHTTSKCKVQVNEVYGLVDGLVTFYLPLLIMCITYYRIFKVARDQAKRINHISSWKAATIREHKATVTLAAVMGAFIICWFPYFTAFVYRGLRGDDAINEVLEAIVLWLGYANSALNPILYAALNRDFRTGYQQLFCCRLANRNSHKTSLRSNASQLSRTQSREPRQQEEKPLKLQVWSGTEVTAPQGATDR

[3] = DRUGMATRIX: Nicotinic Acetylcholine radioligand binding (ligand: [125I] Epibatidine); type: cell membranes, Membrane; details: imr-32; Not Active = under 50% inhibition at 10 µM
Interstitial collagenase = target: T1, Interstitial collagenase (Homo sapiens, UniProt P03956); test: biochemical; type: tissue-based, Rheumatoid synovial fibroblasts;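 note: MMP-1 enzyme inhibition assay using a peptide substrate; in other assays of this panel Not Active means under 50% inhibition at 10 µM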
T1 sequence (P03956 whole entry): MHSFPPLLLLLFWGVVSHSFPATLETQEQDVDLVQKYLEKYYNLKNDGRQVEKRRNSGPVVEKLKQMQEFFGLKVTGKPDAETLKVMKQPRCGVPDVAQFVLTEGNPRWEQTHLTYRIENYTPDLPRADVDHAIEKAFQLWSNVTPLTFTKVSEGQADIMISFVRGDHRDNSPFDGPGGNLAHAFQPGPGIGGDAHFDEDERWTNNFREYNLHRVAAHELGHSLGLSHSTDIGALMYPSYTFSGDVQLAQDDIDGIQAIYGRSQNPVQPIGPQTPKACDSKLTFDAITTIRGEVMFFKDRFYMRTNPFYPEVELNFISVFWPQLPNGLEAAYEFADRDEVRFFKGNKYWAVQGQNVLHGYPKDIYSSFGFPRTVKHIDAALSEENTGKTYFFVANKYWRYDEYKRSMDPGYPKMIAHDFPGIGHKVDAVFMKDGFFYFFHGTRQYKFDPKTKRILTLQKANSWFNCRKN

Adenosine receptor A3 = target: T2, Adenosine receptor A3 (Homo sapiens, UniProt P0DMS8); type: cell membranes, CHO-K1, Membrane;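 note: radioligand binding assay with AB-MECA serving as the labeled ligand; in other assays of this panel Not Active means under 50% inhibition at 10 µM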
T2 sequence (P0DMS8 whole entry): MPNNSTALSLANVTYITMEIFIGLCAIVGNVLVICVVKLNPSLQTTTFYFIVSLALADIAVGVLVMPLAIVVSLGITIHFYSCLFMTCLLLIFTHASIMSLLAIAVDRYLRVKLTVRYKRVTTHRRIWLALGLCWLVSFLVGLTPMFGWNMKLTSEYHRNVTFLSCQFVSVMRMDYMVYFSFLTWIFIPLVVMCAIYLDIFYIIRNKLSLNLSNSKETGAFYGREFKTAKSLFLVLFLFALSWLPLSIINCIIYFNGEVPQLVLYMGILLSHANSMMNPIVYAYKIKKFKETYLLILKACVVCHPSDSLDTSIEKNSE

Compound	IC50 [1]	IC50 [2]	Ki [2]	IC50 (Histamine H2 receptor)	IC50 [3]	Ki [3]	IC50 (Interstitial collagenase)	IC50 (Adenosine receptor A3; cho-k1)	Ki [1]	Ki (Histamine H2 receptor)	Ki (Interstitial collagenase)	Ki (Adenosine receptor A3; cho-k1)	IC50 (Adenosine receptor A3; read-out: IC50)	Ki (Adenosine receptor A3; read-out: Ki)
OC(Cn1cncn1)(Cn1cncn1)c1ccc(F)cc1F [FLUCONAZOLE]	Not Active	Not Active	Not Active	Not Active	Not Active	Not Active	Not Active	Not Active	–	–	–	–	–	–
CCCC1O[C@@H]2C[C@H]3[C@@H]4CCC5=CC(=O)C=C[C@]5(C)[C@H]4[C@@H](O)C[C@]3(C)[C@]2(C(=O)CO)O1 (some centres not stated) [BUDESONIDE]	Not Active	Not Active	Not Active	Not Active	Not Active	Not Active	Not Active	Not Active	–	–	–	–	–	–
Cc1cc(C2CCCCC2)n(O)c(=O)c1 [CICLOPIROX]	Not Active	Not Active	Not Active	Not Active	Not Active	Not Active	Not Active	Not Active	–	–	–	–	–	–
Cc1c(C)c2c(c(C)c1O)CC[C@@](C)(CCC[C@H](C)CCC[C@H](C)CCCC(C)C)O2 [ALPHA-TOCOPHEROL]	Not Active	Not Active	Not Active	Not Active	Not Active	Not Active	Not Active	Not Active	–	–	–	–	–	–
Cc1c2oc3c(C)ccc(C(=O)N[C@@H]4C(=O)N[C@H](C(C)C)C(=O)N5CCC[C@H]5C(=O)N(C)CC(=O)N(C)[C@@H](C(C)C)C(=O)O[C@@H]4C)c3nc-2c(C(=O)N[C@@H]2C(=O)N[C@H](C(C)C)C(=O)N3CCC[C@H]3C(=O)N(C)CC(=O)N(C)[C@@H](C(C)C)C(=O)O[C@@H]2C)c(N)c1=O [DACTINOMYCIN] (I: T[dV]P[Sar][NMeV] / II: T[dV]P[Sar][NMeV]; ester I:1-I:C, II:1-II:C; linker I:N-II:N via Actinocin(1to9))	Not Active	Not Active	Not Active	Not Active	Not Active	Not Active	Not Active	Not Active	–	–	–	–	–	–
CC1(C)S[C@@H]2[C@H](NC(=O)Cc3ccccc3)C(=O)N2[C@H]1C(=O)O [PENICILLIN G]	Not Active	Not Active	Not Active	Not Active	Not Active	Not Active	Not Active	Not Active	–	–	–	–	–	–
C[C@H](CCC(=O)O)[C@H]1CC[C@H]2[C@@H]3[C@H](O)C[C@@H]4C[C@H](O)CC[C@]4(C)[C@H]3C[C@H](O)[C@]12C [CHOLIC ACID]	Not Active	Not Active	Not Active	Not Active	Not Active	Not Active	Not Active	Not Active	–	–	–	–	–	–
CN(Cc1ccc(C(C)(C)C)cc1)Cc1cccc2ccccc12 [BUTENAFINE]	Not Active	Not Active	Not Active	Not Active	Not Active	Not Active	Not Active	Not Active	–	–	–	–	–	–
N=C(N)NCCN1CCCCCCC1 [GUANETHIDINE]	Not Active	Not Active	Not Active	Not Active	Not Active	Not Active	Not Active	Not Active	–	–	–	–	–	–
C[C@H]1O[C@@H](O[C@H]2[C@@H](O)C[C@H](O[C@H]3[C@@H](O)C[C@H](O[C@H]4CC[C@@]5(C)[C@H](CC[C@@H]6[C@@H]5C[C@@H](O)[C@]5(C)[C@@H](C7=CC(=O)OC7)CC[C@]65O)C4)O[C@@H]3C)O[C@@H]2C)C[C@H](O)[C@@H]1O [DIGOXIN]	Not Active	Not Active	Not Active	Not Active	Not Active	Not Active	Not Active	Not Active	–	–	–	–	–	–
CCCCc1nc(Cl)c(CO)n1Cc1ccc(-c2ccccc2-c2nnn[nH]2)cc1 [LOSARTAN]	Not Active	Not Active	Not Active	Not Active	Not Active	Not Active	Not Active	Not Active	–	–	–	–	–	–
Nc1c(Br)cc(Br)cc1CN[C@H]1CC[C@H](O)CC1 [AMBROXOL]	Not Active	Not Active	Not Active	Not Active	Not Active	Not Active	Not Active	Not Active	–	–	–	–	–	–
CNCCc1ccccn1 [BETAHISTINE]	Not Active	Not Active	Not Active	Not Active	Not Active	Not Active	Not Active	Not Active	–	–	–	–	–	–
O=C(O)CCCc1ccc(N(CCCl)CCCl)cc1 [CHLORAMBUCIL]	Not Active	Not Active	Not Active	Not Active	Not Active	Not Active	Not Active	Not Active	–	–	–	–	–	–
NC(=O)N1c2ccccc2CCc2ccccc21	Not Active	Not Active	Not Active	Not Active	Not Active	Not Active	Not Active	Not Active	–	–	–	–	–	–
NCCCCCC(=O)O [AMINOCAPROIC ACID]	Not Active	Not Active	Not Active	Not Active	Not Active	Not Active	Not Active	Not Active	–	–	–	–	–	–
C=C(C)C1(O)OC(=O)C=C1OC (configuration not stated) [PENICILLIC ACID]	Not Active	Not Active	Not Active	Not Active	Not Active	Not Active	Not Active	Not Active	–	–	–	–	–	–
CC1(C)O[C@@H]2C[C@H]3[C@@H]4CCC5=CC(=O)CC[C@]5(C)[C@@]4(F)[C@@H](O)C[C@]3(C)[C@]2(C(=O)CCl)O1 [HALCINONIDE]	Not Active	Not Active	Not Active	Not Active	Not Active	Not Active	Not Active	Not Active	–	–	–	–	–	–
LIPOPOLYSACCHARIDE E. COLI O55:B5	Not Active	Not Active	Not Active	Not Active	Not Active	Not Active	Not Active	Not Active	Not Active	Not Active	Not Active	Not Active	–	–
COc1cc2c3cc1Oc1cc(ccc1O)C[C@@H]1c4c(cc(OC)c(O)c4Oc4ccc(cc4)C[C@@H]3N(C)CC2)CC[N+]1(C)C.[Cl-]	Not Active	Not Active	Not Active	Not Active	Not Active	Not Active	Not Active	Not Active	–	–	–	–	–	–
Cc1cc(C(C#N)c2ccc(Cl)cc2)c(Cl)cc1NC(=O)c1cc(I)cc(I)c1O (configuration not stated) [CLOSANTEL]	Not Active	Not Active	Not Active	Not Active	Not Active	Not Active	Not Active	–	–	–	–	–	96 nM	54 nM
CC(NC(C)(C)C)C(=O)c1cccc(Cl)c1 (configuration not stated) [BUPROPION]	Not Active	Not Active	Not Active	Not Active	Not Active	Not Active	Not Active	Not Active	–	–	–	–	–	–
Cc1onc(-c2ccccc2Cl)c1C(=O)N[C@@H]1C(=O)N2[C@@H]1SC(C)(C)[C@@H]2C(=O)O [CLOXACILLIN]	Not Active	Not Active	Not Active	Not Active	Not Active	Not Active	Not Active	Not Active	–	–	–	–	–	–
CADMIUM ACETATE	Not Active	Not Active	Not Active	Not Active	Not Active	Not Active	Not Active	Not Active	Not Active	Not Active	Not Active	Not Active	–	–
CNCCCN1c2ccccc2CCc2ccccc21 [DESIPRAMINE]	Not Active	Not Active	Not Active	Not Active	Not Active	Not Active	Not Active	Not Active	–	–	–	–	–	–
C[C@]12CC[C@@H]3c4ccc(O)cc4CC[C@H]3[C@@H]1CCC2=O [ESTRONE]	Not Active	Not Active	Not Active	Not Active	Not Active	Not Active	Not Active	Not Active	–	–	–	–	–	–
